Article PMC2728224 (Cancer Chemotherapy and Pharmacology, 2009)

Target: T1, dihydrofolate reductase (DHFR) (Homo sapiens, UniProt P00374)
T1 sequence (P00374 1-187): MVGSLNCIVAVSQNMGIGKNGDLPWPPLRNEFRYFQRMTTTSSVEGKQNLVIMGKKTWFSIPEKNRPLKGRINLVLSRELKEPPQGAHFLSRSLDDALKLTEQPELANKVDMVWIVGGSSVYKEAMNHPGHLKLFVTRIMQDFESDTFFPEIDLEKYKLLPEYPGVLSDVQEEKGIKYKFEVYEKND
Test: spectrophotometric DHFR activity assay
Assay type: biochemical

Ki: 45 nM
SMILES: C#CCC(Cc1cnc2nc(N)nc(N)c2n1)c1ccc(C(=O)NC(CCC(=O)O)C(=O)O)cc1 (racemic) [pralatrexate]
